Reference: US9793566B2, “Aqueous electrolytes for redox flow battery systems” (Battelle Memorial Institute, priority 2015, dated 2017)
Values after ≈ are worked out from the molar mass of the structure shown.

Tests used:
physchem = conditions: aqueous buffer
[1] = Electrolyte stability: repeated cycling overnight, cyclic voltammograms before and after; type: physicochemical; conditions: 300 mM DMTU, 0.45 M HCl, no significant peak changes in the cyclic voltammograms
Source text: Cyclic voltammograms were obtained before and after the overnight test—initial E (V)=0, high E (V)=1, low E (V)=−0.8, initial P/N=P, scan rate (V/s)=0.05, segment=3, sample interval (V)=0.001, quiet time (s)=2, […].

[2] = Cyclic voltammetry comparison of N-methyl thiourea and N,N′-dimethyl thiourea catholytes; type: physicochemical; conditions: 200 mM in 1 M NaCl, scan rate 0.05 V/s
Experimental: Aqueous catholytes comprising 200 mM MTU and 200 mM DMTU were compared. Each catholyte also included 1 M NaCl. Cyclic voltammetry was performed under the following conditions: initial E (V)=0, high E (V)=1, low E (V)=−0.75, initial P/N=P, scan rate (V/s)=0.05, segment=7, sample interval (V)=0.001, quiet time (s)=2, sensitivity (A/V)=0.001.

[3] = Cyclic voltammetry, redox couple potential; type: physicochemical; conditions: neutral aqueous solution
Experimental: Cyclic voltammetry was performed at 0.05 V/s with a glassy carbon working electrode.

Compound	solubility (physchem)	stability in acid solutions [1]	kinetics, reversibility and overpotential compared with MTU [2]	one electron redox couple [3]
CNC(=S)NC [DMTU, N,N′-dimethyl thiourea]	~4000 mM (≈ 417 mg/mL)	good stability	better kinetics, with better reversibility and a lower overpotential	–
CC1(C)CC(O)CC(C)(C)N1[O] [HTMPO, 4-hydroxy-2,2,6,6-tetramethylpiperidine 1-oxyl]	–	–	–	0.75 V vs. SHE
